Test [1] deals with P. falciparum 3D7 parasites. Put plainly: P. falciparum growth inhibition assay, 2-cycle (120 h treatment), delayed-death screen and dose-response. The class given is cell-based, Plasmodium falciparum. Particulars: for activity at 2 µg/mL: Plasmodium falciparum, 3D7.
The test system of test [2] is T. gondii RH strain (RH-Tub-eYFP) tachyzoites. In words: microbe, parasite or virus in culture. The class given is cell-based, Toxoplasma gondii. Particulars: 72 h; for percent parasite growth at 2 µg/mL: Toxoplasma gondii.
Test [3] has as its system P. falciparum 3D7 parasites. Put plainly: P. falciparum growth inhibition assay, 1-cycle (72 h treatment), SYBR DNA staining (library screen at 2 μg/mL and dose-response). Format: cell-based, Plasmodium falciparum. Particulars: for activity at 2 µg/mL: Plasmodium falciparum, 3D7.
Where [4] appears, read: library screen at 2 μg/mL, 120 h, % growth, replicate 1, read-out: Pf_120h_%Growth_Rep1.
Setting [5] is: library screen at 2 μg/mL, 120 h, % growth, replicate 2, read-out: Pf_120h_%Growth_Rep2.
Setting [6] is: library screen at 2 μg/mL, % growth, replicate 1, read-out: Tg_72h_%Growth_Rep1.
The mark [7] stands for this setting: library screen at 2 μg/mL, % growth, replicate 2, read-out: Tg_72h_%Growth_Rep2.
Setting [8] is: library screen at 2 μg/mL, 72 h, % growth, replicate 1, read-out: Pf_72h_%Growth_Rep1.
Setting [9] is: library screen at 2 μg/mL, 72 h, % growth, replicate 2, read-out: Pf_72h_%Growth_Rep2.
The mark [10] stands for this setting: library screen at 2 μg/mL, 120 h, % growth, replicate 1.
[11] abbreviates: library screen at 2 μg/mL, 120 h, % growth, replicate 2.
Where [12] appears, read: library screen at 2 μg/mL, % growth, replicate 1.
Setting [13] is: library screen at 2 μg/mL, % growth, replicate 2.
[14] abbreviates: library screen at 2 μg/mL, 72 h, % growth, replicate 1.
The mark [15] stands for this setting: library screen at 2 μg/mL, 72 h, % growth, replicate 2.
[16] abbreviates: P. falciparum 3D7, 120 h, parasite screen at 2 μg/mL, % growth, replicate 1.
The mark [17] stands for this setting: P. falciparum 3D7, 120 h, parasite screen at 2 μg/mL, % growth, replicate 2.
Setting [18] is: T. gondii, parasite screen at 2 μg/mL, % growth, replicate 1.
[19] abbreviates: T. gondii, parasite screen at 2 μg/mL, % growth, replicate 2.
[20] abbreviates: P. falciparum 3D7, 72 h, parasite screen at 2 μg/mL, % growth, replicate 1.
Setting [21] is: P. falciparum 3D7, 72 h, parasite screen at 2 μg/mL, % growth, replicate 2.

Like-named read-outs stand apart in the source and are kept apart here. *1 amine or outer side, *2 acyl side, *3 side chain or, on linkers, in order; H or OH if unused. Where a SMILES comes first, the peptide text is derived from it. Bridges are numbered along the chain shown (N, C = ends). [ ]: non-standard residue; d: D form. The star is where a group is joined. pTerphenylCO(4''-OnC5H11) = CCCCCOc1ccc(-c2ccc(-c3ccc(C(=O)*)cc3)cc2)cc1; Orn(4R-OH,5R-OH) = O=C([C@H](C[C@@H](O)[C@@H](O)N[*:3])N[*:1])[*:2]; hTyr(3S-OH,4S-OH) = N[C@H](C(=O)O)[C@H](O)[C@@H](O)c1ccc(O)cc1; Pro(3S-OH,4S-Me) = C[C@H]1CN[C@H](C(=O)O)[C@H]1O; Hyp = O=C(O)[C@@H]1C[C@@H](O)CN1

With `CCCCCOc1ccc(-c2ccc(-c3ccc(C(=O)N[C@H]4C[C@@H](O)[C@@H](O)NC(=O)[C@@H]5[C@@H](O)[C@@H](C)CN5C(=O)[C@H]([C@@H](C)O)NC(=O)[C@H]([C@H](O)[C@@H](O)c5ccc(O)cc5)NC(=O)[C@@H]5C[C@@H](O)CN5C(=O)[C@H]([C@@H](C)O)NC4=O)cc3)cc2)cc1` [Anidulafungin] ({pTerphenylCO(4''-OnC5H11)}-[Orn(4R-OH,5R-OH)]T[Hyp][hTyr(3S-OH,4S-OH)]T[Pro(3S-OH,4S-Me)]; lactam 1-C), the activity at 2 µg/mL in test [1] (setting [4]) worked out at 162%; in test [1] (setting [5]) it was 103%; in test [3] (setting [8]) it was 93.1%; in test [3] (setting [9]) it was 85.8%. Besides, the percent parasite growth at 2 µg/mL in test [2] (setting [6]) worked out at 88.8%; in test [2] (setting [7]), 95.8%.

Turning to `CC(=O)O[C@@H]1[C@@H]2O[C@H]2[C@@](C)(O)C(=O)[C@@H](C)C/C=C\[C@H]2[C@H](O)C(C)=C(C)[C@H]3[C@H](Cc4ccccc4)NC(=O)[C@@]123` [Epoxycytochalasin C, 19,20-], in test [1] (setting [10]), the Pf_120h_%Growth_Rep1 is 4.88%. Besides, in test [1] (setting [11]), the Pf_120h_%Growth_Rep2 was determined as 15.35%. In test [2] (setting [12]), this compound displayed a Tg_72h_%Growth_Rep1 of 1.38%. In test [2] (setting [13]), this compound registered a Tg_72h_%Growth_Rep2 of 1.44%. This compound also showed a Pf_72h_%Growth_Rep1 in test [3] (setting [14]) of 3.41%. The Pf_72h_%Growth_Rep2 in test [3] (setting [15]) is listed as 4.96%.

Take `C[C@@]12CCC[C@@]34CCC[C@@H](C=C[C@H]1CC3)N42` [Porantherine]: the Pf_120h_%Growth_Rep1 in test [1] (P. falciparum, 120 h, parasite screen 2 μg/mL, % growth, replicate 1) was determined as 101.33%. The compound also had a Pf_120h_%Growth_Rep2 in test [1] (P. falciparum, 120 h, parasite screen 2 μg/mL, % growth, replicate 2) of 98.35%. Further, the Tg_72h_%Growth_Rep1 in test [2] (T. gondii, parasite screen 2 μg/mL, % growth, replicate 1) is recorded as 90.85%. Also, the Tg_72h_%Growth_Rep2 in test [2] (T. gondii, parasite screen 2 μg/mL, % growth, replicate 2) was 74.43%. This compound also showed a Pf_72h_%Growth_Rep1 in test [3] (P. falciparum, 72 h, parasite screen 2 μg/mL, % growth, replicate 1) of 85.43%. In addition, in test [3] (P. falciparum, 72 h, parasite screen 2 μg/mL, % growth, replicate 2), the Pf_72h_%Growth_Rep2 is reported as 115.67%.

Take `C/C=C/C=C/C=C/C(=O)N[C@H]1CCCNC(=O)[C@H](C)N(C)C(=O)[C@H](C(C)C)N(C)C1=O` [Aspochracin]: in test [1] (setting [10]), the Pf_120h_%Growth_Rep1 was determined as 147.75%. This compound displayed a Pf_120h_%Growth_Rep2 in test [1] (setting [11]) of 101.25%. In addition, the Tg_72h_%Growth_Rep1 in test [2] (setting [12]) stood at 82.68%. This compound came in with a Tg_72h_%Growth_Rep2 in test [2] (setting [13]) of 94.06%. This compound also yielded a Pf_72h_%Growth_Rep1 in test [3] (setting [14]) of 109.60%. Moreover, the Pf_72h_%Growth_Rep2 in test [3] (setting [15]) is reported as 89.28%.

In the case of `O=C(O)/C=C/c1ccccc1` [Cinnamic acid], the activity at 2 µg/mL was determined as 147% in test [1] (P. falciparum, 120 h, screen at 2 μg/mL, replicate 1, read-out: Pf_120h_%Growth_Rep1); 102% in test [1] (P. falciparum, 120 h, screen at 2 μg/mL, replicate 2, read-out: Pf_120h_%Growth_Rep2); 90.3% in test [3] (P. falciparum, 72 h, screen at 2 μg/mL, replicate 1, read-out: Pf_72h_%Growth_Rep1); 87.8% in test [3] (P. falciparum, 72 h, screen at 2 μg/mL, replicate 2, read-out: Pf_72h_%Growth_Rep2). Besides, the percent parasite growth at 2 µg/mL in test [2] (T. gondii, screen at 2 μg/mL, replicate 1, read-out: Tg_72h_%Growth_Rep1) was 86.5%; in test [2] (T. gondii, screen at 2 μg/mL, replicate 2, read-out: Tg_72h_%Growth_Rep2), 96.7%.

Turning to `COc1c(-c2ccccc2)c2ccccc2[nH]c1=O` [BIA-M1149], the Pf_120h_%Growth_Rep1 in test [1] (setting [16]) was 106.21%. The compound also gave a Pf_120h_%Growth_Rep2 in test [1] (setting [17]) of 123.66%. In test [2] (setting [18]), this compound gave a Tg_72h_%Growth_Rep1 of 136.04%. The compound also displayed a Tg_72h_%Growth_Rep2 in test [2] (setting [19]) of 92.92%. This compound also returned a Pf_72h_%Growth_Rep1 in test [3] (setting [20]) of 89.32%. Also, in test [3] (setting [21]), the Pf_72h_%Growth_Rep2 is 119.11%.

As for `CON=C1CC2(CC3CC(CC=C(C)CC(C)C=CC=C4COC5C(O)C(C)=CC(C(=O)O3)C45O)O2)OC(C(C)=CC(C)C)C1C` (stereo not drawn) [BIA-M1298], the Pf_120h_%Growth_Rep1 in test [1] (setting [16]) is recorded as -5.10%. This compound displayed a Pf_120h_%Growth_Rep2 in test [1] (setting [17]) of 5.91%. The Tg_72h_%Growth_Rep1 in test [2] (setting [18]) came to 102.84%. The compound also had a Tg_72h_%Growth_Rep2 in test [2] (setting [19]) of 95.78%. For the same compound, in test [3] (setting [20]), the Pf_72h_%Growth_Rep1 stood at 17.45%. For the same compound, the Pf_72h_%Growth_Rep2 in test [3] (setting [21]) is on record as -0.02%.

Regarding `CC(C)[C@H]1C(=O)O[C@H](C(C)C)C(=O)N(C)[C@@H](C(C)C)C(=O)O[C@H](C(C)C)C(=O)N(C)[C@@H](C(C)C)C(=O)O[C@H](C(C)C)C(=O)N1C` [Enniatin B], the activity at 2 µg/mL in test [1] (setting [4]) is 2.26%; in test [1] (setting [5]) it was 4.15%; in test [3] (setting [8]), 4.68%; in test [3] (setting [9]), 1.65%. Besides, the percent parasite growth at 2 µg/mL in test [2] (setting [6]) was 3.2%; in test [2] (setting [7]), 30.3%.
